Holding throughout (format): cell-based, human
The subject of experiment [1] is TagGFP2-α-syn SH-SY5Y cells. The experiment in a line: α-syn aggregates induced by 6-OHDA, fluorescence microscopy. The settings on record: 5 μM for 24 h, then 6-OHDA 100 μM for 2 h. The method, then: Assessment of the α-syn aggregate formation was performed to corroborate the above results. TagGFP2-α-syn SH-SY5Y cells were treated for 24 h with 5 μM of 4 and 5 and then with 100 μM of 6-OHDA. After a 2 h incubation, the presence of α-syn aggregates was visualized by fluorescence microscopy analysis and quantified (Figure 7).
Figure 7 Effects of compounds 4 and 5 on α-syn aggregates induced by 6-OHDA in TagGFP2-α-syn SH-SY5Y cells. Cells were treated with compounds 4 and 5 (5 μM, for 24 h) and then with 6-OHDA (100 μM, for 2 h). At the end of incubation, the α-syn aggregates level was detected by fluorescence microscope. (A) Representative images of α-syn aggregates. (B) Quantification of the α-syn aggregates level. Data are expressed as mean fluorescence intensity ± SEM of at least three independent experiments (§§ p < 0.01 vs untreated cells, * p < 0.05 vs cells treated with 6-OHDA at one-way ANOVA with the Bonferroni post hoc test). Scale bars: 50 μm.
At the end of incubation, the aggregation of α-synuclein was detected using an inverted fluorescent microscope (Eclipse Ti-E, Nikon Instruments Spa, Florence, Italy). The intensity of fluorescence was directly proportional to the aggregation of α-synuclein. Data are expressed as arbitrary units of fluorescence.

Experiment [2] has as its system SH-SY5Y cells. The experiment in a line: Intracellular GSH levels (MCB probe). The note with it: 5 μM; for increase in GSH levels as compared to control: 24 h; for GSH quantity at different times: after 12 and 24 h of treatment (3–24 h studied). The method, then:
By observing the reduction of ROS levels following a long treatment of the curcumin-DEF hybrids before the treatment with t-BuOOH, we hypothesized that the antioxidant effect might likely result from an increase in levels of GSH. This endogenous antioxidant plays critical roles in protecting cells against oxidative stress damage.[32] Thus, the intracellular GSH levels were analyzed by employing the same experimental conditions used to evaluate the indirect antioxidant effect by fluorescent probe monochlorobimane (MCB). […] For the most promising compounds 4 and 5, the effect on GSH levels at different times (3–24 h) was studied.
Figure 4 Effects of compounds 4–7 and DMF on GSH levels in SH-SY5Y cells. Cells were treated with (A) compounds 4–7 (5 μM) and DMF (5 and 10 μM) for 24 h. (B) Cells were treated with compounds 4 and 5 (5 μM) for different times (3, 6, 12, and 24 h). At the end of the treatment, the GSH levels were evaluated by probe MCB. Results are expressed as mean ± SEM of at least three independent experiments (** p < 0.01 and *** p < 0.001 vs untreated cells at one-way ANOVA with the Dunnett post hoc test).
GSH levels were evaluated by using the fluorescent probe MCB, as previously described.[44]

Experiment [3] relates to NQO1. As to the kind of experiment: NQO1 gene expression by RT-PCR. The settings on record: 5 μM, after 12 and 24 h of treatment. As to the method: Figure 5 Effects of compounds 4 and 5 on the Nrf2/ARE signaling pathway (A and B) and NQO1 gene expression (C) in SH-SY5Y cells. (A) Cells were treated with compounds 4 and 5 (5 μM) for different times (1, 3, and 6 h). Translocation of Nrf2 from the cytosol to the nucleus was evaluated by Western blotting. Data are expressed as a ratio between nuclear Nrf2 and cytoplasmic Nrf2 levels and reported as mean ± SEM of at least three independent experiments. (B) Cells were treated with compounds 4 and 5 (5 μM) and DMF (5 μM) for 6 h. The Nrf2/ARE binding activity was determined by an ELISA assay. Results are expressed as fold increase versus untreated cells and reported as mean ± SEM of at least three independent experiments (** p < 0.01 and * p < 0.05 versus untreated cells at the t-test). (C) Cells were treated with compounds 4 and 5 (5 μM) for different times (6, 12, and 24 h). The NQO1 expression was determined by RT-PCR. Results are expressed as the relative normalized expression and reported as mean ± SEM of at least three independent experiments (*** p < 0.001 versus untreated cells at one-way ANOVA with the Dunnett post hoc test).
To further confirm the increase in Nrf2 transcriptional activity upon treatment with 4 and 5, the mRNA levels of NQO1, a Nrf2 target gene, were evaluated in SH-SY5Y cells (Figure 5C). […]

For experiment [4], the system named is SH-SY5Y cells. The experiment in a line: Neuroprotection against 6-OHDA, MTT assay. The note with it: 5 μM for 24 h, then 6-OHDA 100 μM for 2 h. As to the method: Figure 6 Effects of 4 and 5 on neurotoxicity induced by OAβ1–42 oligomers and 6-OHDA in SH-SY5Y cells. (A) Cells were incubated with 4 and 5 (5 μM, for 24 h) and then treated with OAβ1–42 (10 μM, for 4 h). (B) Cells were incubated with compounds 4 and 5 (5 μM, for 24 h), then treated with 6-OHDA (100 μM, for 2 h), and then starved in complete medium for 22 h. The neurotoxicity was evaluated by an MTT assay. Data are expressed as percentages of neurotoxicity versus cells treated with Aβ1–42 oligomers or 6-OHDA and reported as mean ± SEM of at least three independent experiments (* p < 0.05 versus cells treated with 6-OHDA at one-way ANOVA with the Dunnett post hoc test).
The neurotoxin 6-OHDA provides an in vitro lesion model by inducing CNS oxidative damage and neuroinflammation suitable for assessing the neuroprotective potential of PD therapeutics.[34] Consistent with these effects, 6-OHDA (100 μM, for 2 h) was employed to induce damage in SH-SY5Y cells previously treated with 4 and 5 (5 μM, for 24 h).
Then, cells were treated with 6-hydroxydopamine (6-OHDA, 100 μM) for 2 h and starved in complete medium for 22 h. The neuroprotective activity was measured by using the MTT assay as previously described.[47] Data are expressed as a percentage of neurotoxicity versus untreated cells.

As for `CCOC(=O)/C=C/C(C(=O)/C=C/c1ccc(OC)cc1)=C(O)\C=C\c1ccc(OCc2ccccc2)cc1` [Compound 5, Ethyl (2E,4Z,6E)-7-(4-(Benzyloxy)phenyl)-5-hydroxy-4-((E)-3-(4-methoxyphenyl)acryloyl)hepta-2,4,6-trienoate], the “levels of α-syn aggregates elicited by 6-OHDA” value in experiment [1] was “significantly decrease the levels of toxic α-syn aggregates”. Also, in experiment [2], the “increase in GSH levels as compared to control” value turned out to be 4 fold and the “GSH quantity at different times” value is given as “significant increase”. Besides, in experiment [3], the “NQO1 mRNA levels” value is “significant ability to increase NQO1 mRNA levels”. Besides, in experiment [4], the “protection against 6-OHDA-induced decrease in cell viability” value is listed as “mitigate the 6-OHDA-induced decrease in cell viability”.
On the same counts, the results for `CCOC(=O)/C=C/C(C(=O)/C=C/c1ccc(OC)cc1)=C(O)\C=C\c1ccc(OC)cc1` [Compound 4, Ethyl (2E,4Z,6E)-5-Hydroxy-7-(4-methoxyphenyl)-4-((E)-3-(4-methoxyphenyl)acryloyl)hepta-2,4,6-trienoate] are “significantly decrease the levels of toxic α-syn aggregates”, 4 fold, “significant increase”, “significant ability to increase NQO1 mRNA levels” and “mitigate the 6-OHDA-induced decrease in cell viability”.

The values are drawn from paper PMC8009478, “Novel Curcumin-Diethyl Fumarate Hybrid as a Dualistic GSK-3β Inhibitor/Nrf2 Inducer for the Treatment of Parkinson’s Disease” (ACS Chemical Neuroscience, 2020).
